Laboratory results reported in PMC2700083, “A covalent peptide inhibitor of RGS4 identified in a focused one-bead, one compound library screen” (BMC Pharmacology, 2009).
Converted amounts (≈) assume the structure as drawn. Marks after values point to notes of the source that are not given here. *1 amine or outer side, *2 acyl side, *3 side chain or, on linkers, in order; H or OH if unused. Where a SMILES comes first, the peptide text is derived from it. Bridges are numbered along the chain shown (N, C = ends). CH2 = C([*:1])[*:2]

Key:
[1] = biological target: T1, RGS4 (Rattus norvegicus, UniProt P49799); assay: FCPIA (flow cytometry protein interaction assay), RGS4-Gαo interaction, wild type RGS4 (MBP-RGS4Δ51N); format: binding
T1 construct: made in house
T1 sequence (P49799 52-205 limits assumed): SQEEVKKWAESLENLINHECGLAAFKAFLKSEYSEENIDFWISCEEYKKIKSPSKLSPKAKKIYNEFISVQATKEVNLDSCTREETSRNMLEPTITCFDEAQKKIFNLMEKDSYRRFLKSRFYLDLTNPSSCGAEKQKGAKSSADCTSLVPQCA
Procedure: (§1) We recently described a bead-based screen in which 2.5 × 10^6 different peptide sequences were prepared as a OBOC library. Fluorescently labeled RGS4 was used to probe the library for peptides that bind RGS4 [5]. […] Since the majority of those hit peptides could bind tightly to the RGS without disrupting GAP activity, they were also tested in the flow cytometry protein interaction assay (FCPIA) (Figure 1), which measures the interaction between RGS4 and Gαo. In this method we used a Luminex flow cytometer to detect the binding of Alexa Fluor 532-labeled Gαo to biotinylated RGS4 on avidin beads in the presence of AMF (AlCl3, MgCl2, NaF and GDP) to put the Gα subunit into a transition state-like conformation. Peptides were tested at 50 μM except where limited by solubility (Table 1).
Figure 1 Hit peptides in the FCPIA. Hit peptides from Roof, et al. 2008 were tested at 50 μM unless otherwise indicated for ability to disrupt the RGS4-Gαo interaction as described using 25 nM Gα o-Alexa Fluor-532 and 5 nM wild type RGS4-biotin (mean ± S.E.M., n ≥ 3) *p < 0.05, **p < 0.01, ***p < 0.001 compared to no peptide.
(§2) Proteins were expressed, purified and labeled as described previously. The mutagenesis was done using the "QuickChange Multi Site-Directed Mutagenesis Kit" from Stratagene according to the manufacturer's protocol. The construct of RGS4 used in these studies is a maltose binding protein (MBP-) fusion protein of the RGS4 sequence from which the amphipathic N-terminal helix has been removed (i.e. MBP-RGS4Δ51N). For simplicity in the text, this will be referred to as RGS4. All other RGS proteins were human sequences and were used as Mpb fusions: RGS7 RGS domain (aa: 305–453), RGS8 full length, RGS16 full length, and RGS19ΔC11 (amino acids 1–209). To cleave RGS4Δ51N from the MBP-His6 construct for MS analysis, MBP-His6-RGS4Δ51N was treated with 15% MBP-His6-TEV protease S219V [11] for 22 hours at 4°C and purified over a Ni-NTA column.
FCPIA was performed as previously published.

[2] = Solubility in buffer by HPLC; format: physicochemical; conditions: in buffer, determined by HPLC; for solubility: read-out: Buffer Solubility
Procedure: Soluble peptides were synthesized on Rink resin, cleaved and cyclized as described previously. Peptide purity (at least 95%) and solubility were verified by high-performance liquid chromatography and correct mass was verified by MS analysis. ALogP calculations are from. Peptides were prepared as 5 mM stocks in DMSO.

[3] = biological target: T2, RGS8 (Homo sapiens, UniProt P57771); set-up: method as in earlier work; conditions: David Roman, in preparation; cited from earlier work
T2 construct: RGS8 full length; made in house
T2 sequence (P57771 1-180): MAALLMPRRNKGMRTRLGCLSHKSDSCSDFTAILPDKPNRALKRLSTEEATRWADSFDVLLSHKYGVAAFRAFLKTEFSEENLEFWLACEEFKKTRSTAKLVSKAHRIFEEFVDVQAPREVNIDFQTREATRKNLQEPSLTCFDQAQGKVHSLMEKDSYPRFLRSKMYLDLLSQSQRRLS

[4] = biological target: T2, RGS8; assay: FCPIA, Gαo binding to RGS8; conditions: no wash, read-out: percent inhibition, RGS8
Procedure: as §1
5nd inhibited Gαo binding to a number of different RGS proteins (Figure 2). […] RGS19 and RGS7 are in the RZ and R7 families, respectively and show less inhibition by 5nd. Linear as well as bridged versions of peptide 5 were tested in the FCPIA since cyclization yields would most likely have been less then 100% in the synthesis of the library leaving some linear peptides present on each bead. […] This may be due to lack of structural rigidity necessary for the correct interaction of the peptide with the RGS protein or a role for chemical reactivity of the disulfide.
Figure 2 Characterization of hit 5. A) and B) Dose response curves for 5nd in the FCPIA with different RGS proteins (RGS Family), (mean ± S.E.M., n = 3) *p < 0.05, **p < 0.01, ***p < 0.001 compared to RGS4 at the same 5nd concentration. C) Peptides were tested at 50 μM as in Figure 1, (mean ± S.E.M., n ≥ 3) *p < 0.05, **p < 0.01, ***p < 0.001 compared to no peptide.
Figure 3 Irreversibility experiments. RGS-biotin on avidin beads was treated with 5nd (100 μM) or 5nm (100 μM) and then washed in buffer (with or without 1 mM DTT) or not washed and put in the FCPIA using RGS4 (A) or RGS8 (B) (mean ± S.E.M., n ≥ 2) *p < 0.05, **p < 0.01, ***p < 0.001 compared to no peptide (100%); #p < 0.05, ##p < 0.01, ###p < 0.001 compared to 5nd no wash.
as §2, with “To cleave RGS4Δ51N from the MBP-His6 construct for MS analysis, MBP-His6-RGS4Δ51N was treated with 15% MBP-His6-TEV protease S219V [11] for 22 hours at 4°C and purified over a Ni-NTA column.” left out

[5] = biological target: T1, RGS4; assay: FCPIA (flow cytometry protein interaction assay), RGS4-Gαo interaction, wild type RGS4 (MBP-RGS4Δ51N); format: binding; conditions: peptide 100 μM
[6] = peptide 50 μM, 25 nM Gαo-Alexa Fluor-532, 5 nM RGS4-biotin

For CSCC[C@@H]1NC(=O)[C@@H](NC(=O)[C@@H](NC(=O)[C@@H](N)CCCCN)C(C)C)CSSC[C@@H](C(=O)N[C@H](C(N)=O)[C@@H](C)O)NC(=O)CNC(=O)CNC1=O [Peptide 4nd, KVCMGGCT-NH2] (H-KVCMGGCT-NH2; disulfide 3-7), the “% Inhibition of RGS4-Gαo” value [1, 6] was 4 ± 3% and the solubility [2] was no less than 470 µM.

With CC(=O)N[C@@H](CCCCN)C(=O)N[C@@H](Cc1c[nH]cn1)C(=O)N[C@H]1CSSC[C@@H](C(=O)N[C@@H](Cc2ccc(O)cc2)C(N)=O)NC(=O)[C@H](Cc2ccccc2)NC(=O)CNC(=O)[C@H](Cc2ccc(O)cc2)NC1=O [Peptide 6ad, Ac-KHCYGFCY-NH2] (Ac-KHCYGFCY-NH2; disulfide 3-7) the “% Inhibition of RGS4-Gαo” value [1, 6] was 27 ± 4*** % and the solubility [2] was 421 µM (≈ 446 µg/mL).

For NCCCC[C@H](N)C(=O)N[C@@H](Cc1c[nH]cn1)C(=O)N[C@H]1CSSC[C@@H](C(=O)N[C@@H](Cc2ccc(O)cc2)C(N)=O)NC(=O)[C@H](Cc2ccccc2)NC(=O)CNC(=O)[C@H](Cc2ccc(O)cc2)NC1=O [Peptide 6nd, KHCYGFCY-NH2] (H-KHCYGFCY-NH2; disulfide 3-7), the “% Inhibition of RGS4-Gαo” value ([1]; peptide 25 μM) was 23 ± 15 (25 μM) * % and the “Buffer Solubility” value [2] was “Low”.

CC(=O)N[C@@H](Cc1ccc(O)cc1)C(=O)N[C@@H](Cc1c[nH]c2ccccc12)C(=O)N[C@@H](CS)C(=O)N[C@@H](CCCCN)C(=O)NCC(=O)N[C@@H](CC(C)C)C(=O)N[C@@H](CS)C(=O)N[C@@H](CCCCN)C(N)=O [Peptide 5al, Ac-YWCKGLCK-NH2] (Ac-YWCKGLCK-NH2) gave a solubility [2] of 460 µM (≈ 479 µg/mL).

With C[C@@H](O)[C@@H]1NC(=O)CNC(=O)[C@H](Cc2ccccc2)NC(=O)[C@@H](NC(=O)[C@@H](NC(=O)CN)[C@@H](C)O)CSSC[C@@H](C(=O)N[C@@H](Cc2c[nH]c3ccccc23)C(N)=O)NC1=O [Peptide 2nd, GTCFGTCW-NH2] (H-GTCFGTCW-NH2; disulfide 3-7) the “% Inhibition of RGS4-Gαo” value [1, 6] was 19 ± 3** % and the solubility [2] was 464 µM (≈ 404 µg/mL).

For CC[C@H](C)[C@@H]1NC(=O)CNC(=O)[C@H]([C@@H](C)O)NC(=O)[C@@H](NC(=O)[C@H](CCCCN)NC(=O)[C@@H](NC(C)=O)C(C)C)CSSC[C@@H](C(=O)N[C@@H](CCC(=O)O)C(N)=O)NC1=O [YJ34, Ac-Val-Lys-c [Cys-Thr-Gly-Ile-Cys]-Glu-NH2, S-S, reference compound] (Ac-VKCTGICE-NH2; disulfide 3-7), the “% Inhibition of RGS4-Gαo” value ([1]; peptide 40 μM) was -17 ± 4 (40 μM) % and the solubility [2] was 80 µM (≈ 71.3 µg/mL).

With CSCC[C@@H]1NC(=O)[C@@H](NC(=O)[C@@H](NC(=O)[C@H](CCCCN)NC(C)=O)C(C)C)CSSC[C@@H](C(=O)N[C@H](C(N)=O)[C@@H](C)O)NC(=O)CNC(=O)CNC1=O [Peptide 4ad, Ac-KVCMGGCT-NH2] (Ac-KVCMGGCT-NH2; disulfide 3-7) the “% Inhibition of RGS4-Gαo” value [1, 6] was 9 ± 6% and the solubility [2] was 459 µM (≈ 384 µg/mL).

In the case of COS(=NS(=O)(=O)c1ccc(Cl)cc1)c1ccc([N+](=O)[O-])cc1 (stereo not drawn) [CCG-4986, methyl N-[(4-chlorophenyl)sulfonyl]-4-nitrobenzenesulfinimidoate], the “activity against RGS8” value [3] is listed as “no activity”.

With CC(=O)N[C@@H](CC(C)C)C(=O)N[C@H](C(=O)N[C@H]1CSSC[C@@H](C(=O)N[C@@H](CCC(N)=O)C(N)=O)NC(=O)[C@H](Cc2ccc(O)cc2)NC(=O)CNC(=O)[C@H](CCCCN)NC1=O)C(C)C [Peptide 3ad, Ac-LVCKGYCQ-NH2] (Ac-LVCKGYCQ-NH2; disulfide 3-7) the “% Inhibition of RGS4-Gαo” value [1, 6] was 10 ± 3% and the solubility [2] was 427 µM (≈ 407 µg/mL).

For CC(C)C[C@@H]1NC(=O)CNC(=O)[C@H](CCCCN)NC(=O)[C@@H](NC(=O)[C@H](Cc2c[nH]c3ccccc23)NC(=O)[C@@H](N)Cc2ccc(O)cc2)CSCSC[C@@H](C(=O)N[C@@H](CCCCN)C(N)=O)NC1=O [Peptide 5nm, YWCKGLCK-NH2] (H-YWCKGLCK-NH2; linker 3-7 via CH2), the inhibition at 100 µM [4] was 18 ± 1%, the solubility [2] was no less than 470 µM and the “% Inhibition of RGS4-Gαo” value [5] was 3 ± 0.1 (100 μM) %.

For CC(C)C[C@H](N)C(=O)N[C@H](C(=O)N[C@H]1CSSC[C@@H](C(=O)N[C@@H](CCC(N)=O)C(N)=O)NC(=O)[C@H](Cc2ccc(O)cc2)NC(=O)CNC(=O)[C@H](CCCCN)NC1=O)C(C)C [Peptide 3nd, LVCKGYCQ-NH2] (H-LVCKGYCQ-NH2; disulfide 3-7), the “% Inhibition of RGS4-Gαo” value [1, 6] was 12 ± 2% and the solubility [2] was no less than 470 µM.

For NCCCC[C@H](NC(=O)[C@@H]1CSSC[C@H](NC(=O)[C@H](CC(N)=O)NC(=O)[C@@H](N)Cc2ccc(O)cc2)C(=O)N[C@@H](CCC(N)=O)C(=O)NCC(=O)N[C@@H](CCC(=O)O)C(=O)N1)C(N)=O [Peptide 1nd, YNCQGECK-NH2] (H-YNCQGECK-NH2; disulfide 3-7), the “% Inhibition of RGS4-Gαo” value [1, 6] was 2 ± 4% and the solubility [2] was no less than 420 µM.

For CC(=O)N[C@@H](Cc1ccc(O)cc1)C(=O)N[C@@H](CC(N)=O)C(=O)N[C@H]1CSSC[C@@H](C(=O)N[C@@H](CCCCN)C(N)=O)NC(=O)[C@H](CCC(=O)O)NC(=O)CNC(=O)[C@H](CCC(N)=O)NC1=O [Peptide 1ad, Ac-YNCQGECK-NH2] (Ac-YNCQGECK-NH2; disulfide 3-7), the “% Inhibition of RGS4-Gαo” value [1, 6] was 14 ± 6% and the solubility [2] was 123 µM (≈ 121 µg/mL).

With CC(=O)N[C@@H](Cc1ccc(O)cc1)C(=O)N[C@@H](Cc1c[nH]c2ccccc12)C(=O)N[C@H]1CSSC[C@@H](C(=O)N[C@@H](CCCCN)C(N)=O)NC(=O)[C@H](CC(C)C)NC(=O)CNC(=O)[C@H](CCCCN)NC1=O [Peptide 5ad, Ac-YWCKGLCK-NH2] (Ac-YWCKGLCK-NH2; disulfide 3-7) the “% Inhibition of RGS4-Gαo” value [1, 6] was 37 ± 3*** % and the solubility [2] was 464 µM (≈ 482 µg/mL).

Compound CC(C)C[C@H](NC(=O)CNC(=O)[C@H](CCCCN)NC(=O)[C@H](CS)NC(=O)[C@H](Cc1c[nH]c2ccccc12)NC(=O)[C@@H](N)Cc1ccc(O)cc1)C(=O)N[C@@H](CS)C(=O)N[C@@H](CCCCN)C(N)=O [Peptide 5nl, YWCKGLCK-NH2] (H-YWCKGLCK-NH2) has a solubility [2] of 465 µM (≈ 465 µg/mL).

In the case of CC(=O)NCC(=O)N[C@H](C(=O)N[C@H]1CSSC[C@@H](C(=O)N[C@@H](Cc2c[nH]c3ccccc23)C(N)=O)NC(=O)[C@H]([C@@H](C)O)NC(=O)CNC(=O)[C@H](Cc2ccccc2)NC1=O)[C@@H](C)O [Peptide 2ad, Ac-GTCFGTCW-NH2] (Ac-GTCFGTCW-NH2; disulfide 3-7), the “% Inhibition of RGS4-Gαo” value ([1]; peptide 10 μM) is reported as 10 ± 4 (10 μM) % and the solubility [2] is reported as 30 µM (≈ 27.4 µg/mL).
